Results published in ChEMBL document CHEMBL4414590, “Discovery of SIAIS178 as an Effective BCR-ABL Degrader by Recruiting Von Hippel-Lindau (VHL) E3 Ubiquitin Ligase” (J Med Chem, 2019).
Blank lines part the entries; values can stand above or below the molecule they belong to. Activity calls are given as the source filed them. No cut-off for these calls is given here.

Columns and labels:
K562 [1] = assay: Growth inhibition of human K562 cells incubated for 2 days by CCK8 assay; format: functional, cell-based; conditions: K562, 48 h
[2] = biological target: T1, von Hippel-Lindau disease tumor suppressor/Tyrosine-protein kinase ABL1/Breakpoint cluster region protein (Homo sapiens, UniProt P00519+P11274+P40337); assay: Protac activity against VHL/BCR-ABL in human K562 cells assessed as induction of BCR-ABL degradation by Western blot analysis; format: cell-based
Target sequence in this assay (P00519 whole entry): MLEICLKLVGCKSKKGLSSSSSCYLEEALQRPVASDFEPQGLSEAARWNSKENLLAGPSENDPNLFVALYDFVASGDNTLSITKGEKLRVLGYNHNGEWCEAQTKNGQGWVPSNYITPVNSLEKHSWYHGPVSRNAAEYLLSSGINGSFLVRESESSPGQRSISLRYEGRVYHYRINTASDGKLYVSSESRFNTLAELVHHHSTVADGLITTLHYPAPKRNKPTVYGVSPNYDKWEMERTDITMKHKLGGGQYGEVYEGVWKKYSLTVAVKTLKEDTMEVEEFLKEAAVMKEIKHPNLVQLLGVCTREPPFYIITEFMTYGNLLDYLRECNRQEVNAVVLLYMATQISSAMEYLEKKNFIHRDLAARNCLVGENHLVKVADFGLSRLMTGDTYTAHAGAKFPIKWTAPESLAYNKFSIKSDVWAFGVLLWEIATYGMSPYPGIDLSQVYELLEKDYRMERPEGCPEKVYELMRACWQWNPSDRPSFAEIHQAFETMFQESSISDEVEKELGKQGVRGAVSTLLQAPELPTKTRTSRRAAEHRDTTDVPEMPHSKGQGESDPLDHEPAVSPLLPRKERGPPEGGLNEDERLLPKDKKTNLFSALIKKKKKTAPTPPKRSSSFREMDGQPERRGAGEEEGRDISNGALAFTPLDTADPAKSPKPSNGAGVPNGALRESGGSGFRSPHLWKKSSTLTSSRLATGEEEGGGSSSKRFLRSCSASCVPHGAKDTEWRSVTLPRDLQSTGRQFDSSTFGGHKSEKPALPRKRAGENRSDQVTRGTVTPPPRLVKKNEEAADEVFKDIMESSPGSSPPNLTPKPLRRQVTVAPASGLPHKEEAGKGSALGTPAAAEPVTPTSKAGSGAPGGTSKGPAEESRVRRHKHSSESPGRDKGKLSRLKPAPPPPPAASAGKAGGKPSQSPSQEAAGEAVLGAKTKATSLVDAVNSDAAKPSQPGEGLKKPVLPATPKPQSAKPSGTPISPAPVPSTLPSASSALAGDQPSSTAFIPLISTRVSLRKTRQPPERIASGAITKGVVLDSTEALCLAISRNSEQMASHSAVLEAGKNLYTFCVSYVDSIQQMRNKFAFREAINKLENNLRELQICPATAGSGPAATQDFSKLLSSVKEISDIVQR
Target sequence in this assay (P11274 whole entry): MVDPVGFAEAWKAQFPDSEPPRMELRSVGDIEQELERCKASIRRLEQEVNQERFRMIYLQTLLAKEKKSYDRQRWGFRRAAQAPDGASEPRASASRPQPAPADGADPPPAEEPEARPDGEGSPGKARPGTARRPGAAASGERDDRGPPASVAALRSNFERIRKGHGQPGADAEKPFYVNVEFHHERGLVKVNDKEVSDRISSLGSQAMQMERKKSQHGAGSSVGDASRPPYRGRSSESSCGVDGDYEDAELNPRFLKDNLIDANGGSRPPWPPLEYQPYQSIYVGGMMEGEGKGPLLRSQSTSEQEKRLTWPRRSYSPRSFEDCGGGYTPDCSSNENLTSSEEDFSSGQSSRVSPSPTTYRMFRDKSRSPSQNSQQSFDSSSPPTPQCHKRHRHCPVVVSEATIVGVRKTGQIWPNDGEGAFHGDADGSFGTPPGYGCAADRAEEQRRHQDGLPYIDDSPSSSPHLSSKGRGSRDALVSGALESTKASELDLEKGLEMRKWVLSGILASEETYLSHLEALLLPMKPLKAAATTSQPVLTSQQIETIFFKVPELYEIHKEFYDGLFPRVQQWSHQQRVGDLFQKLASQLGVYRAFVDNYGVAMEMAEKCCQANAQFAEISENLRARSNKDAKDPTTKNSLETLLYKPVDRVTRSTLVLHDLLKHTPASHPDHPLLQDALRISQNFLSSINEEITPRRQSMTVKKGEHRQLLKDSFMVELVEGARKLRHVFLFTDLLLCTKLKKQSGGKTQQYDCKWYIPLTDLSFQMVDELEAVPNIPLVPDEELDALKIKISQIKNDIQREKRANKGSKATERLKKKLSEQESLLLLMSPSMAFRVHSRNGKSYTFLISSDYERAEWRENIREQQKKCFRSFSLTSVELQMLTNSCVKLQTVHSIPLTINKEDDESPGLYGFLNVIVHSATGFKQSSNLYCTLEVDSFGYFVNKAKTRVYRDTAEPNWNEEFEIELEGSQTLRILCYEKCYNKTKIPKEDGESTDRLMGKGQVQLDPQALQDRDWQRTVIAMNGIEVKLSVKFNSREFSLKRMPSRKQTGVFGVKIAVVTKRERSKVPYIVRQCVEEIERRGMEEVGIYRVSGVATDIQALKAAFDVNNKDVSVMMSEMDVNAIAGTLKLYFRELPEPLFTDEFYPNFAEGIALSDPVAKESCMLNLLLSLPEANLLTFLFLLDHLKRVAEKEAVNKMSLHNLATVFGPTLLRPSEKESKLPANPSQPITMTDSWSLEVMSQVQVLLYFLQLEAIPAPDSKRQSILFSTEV
Target sequence in this assay (P40337 whole entry): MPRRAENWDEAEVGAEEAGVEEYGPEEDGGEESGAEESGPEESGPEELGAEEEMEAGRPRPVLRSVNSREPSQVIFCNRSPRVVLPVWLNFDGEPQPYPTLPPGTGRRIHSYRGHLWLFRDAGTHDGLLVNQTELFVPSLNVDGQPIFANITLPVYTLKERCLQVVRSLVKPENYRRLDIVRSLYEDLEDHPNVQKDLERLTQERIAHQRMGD

K562 [3] = assay: Antitumor activity against luciferse expressing human K562 cells xenografted in NOD/SCID mouse assessed as attenuation of tumor progression at 5 mg/kg, ip QD for 12 days by serial volumetric analysis; format: functional, organism-based
K562 [4] = assay: Growth inhibition of human K562 cells assessed as reduction in cell density at 20 times IC50 incubated for 12 hrs followed by drug wash-out and incubation in drug-free medium up to 144 hrs by CCK8 assay; format: functional, cell-based
K562 [5] = assay: Induction of cell death in human K562 cells assessed as reduction in cell viability at 20 times IC50 incubated for 12 hrs followed by drug wash-out and incubation in drug-free medium up to 144 hrs by CCK8 assay; format: functional, cell-based
[6] = biological target: T2, Bcr/Abl fusion protein (Homo sapiens) (UniProt P00519+P11274); assay: Inhibition of BCR-ABL phosphorylation in human K562 cells at 1 to 100 nM by Western blot analysis; format: cell-based
T2 sequence (P00519 whole entry, looked up, the tested form may be a part): as the sequence (P00519 whole entry) above
T2 sequence (P11274 whole entry, looked up, the tested form may be a part): as the sequence (P11274 whole entry) above

[7] = biological target: T1, von Hippel-Lindau disease tumor suppressor/Tyrosine-protein kinase ABL1/Breakpoint cluster region protein; assay: Protac activity against VHL/BCR-ABL in human K562 cells assessed as induction of BCR-ABL degradation at 1 to 100 nM by Western blot analysis; format: cell-based
Target sequence in this assay (P00519 whole entry, looked up): as the sequence (P00519 whole entry) above
Target sequence in this assay (P11274 whole entry, looked up): as the sequence (P11274 whole entry) above
Target sequence in this assay (P40337 whole entry, looked up): as the sequence (P40337 whole entry) above

[8] = biological target: T2, Bcr/Abl fusion protein (Homo sapiens); assay: Inhibition of BCR-ABL in human K562 cells assessed as reduction in STAT5 phosphorylation at 1 to 100 nM by Western blot analysis; format: cell-based
[9] = biological target: T1, von Hippel-Lindau disease tumor suppressor/Tyrosine-protein kinase ABL1/Breakpoint cluster region protein; assay: Induction of ternary complex formation between VHL and BCR-ABL (unknown origin) expressed in HEK293 cells expressing N-terminal BCR-ABL LgBit fusion protein and N-terminal SmBit-VHL fusion protein at 1 uM incubated for 1 hr by NanoBit technology based luciferase complementation assay; format: cell-based
Target sequence in this assay (P00519 whole entry, looked up): as the sequence (P00519 whole entry) above
Target sequence in this assay (P11274 whole entry, looked up): as the sequence (P11274 whole entry) above
Target sequence in this assay (P40337 whole entry, looked up): as the sequence (P40337 whole entry) above

K562 [10] = assay: Antitumor activity against luciferse expressing human K562 cells xenografted in NOD/SCID mouse assessed as attenuation of tumor progression at 5 to 15 mg/kg, ip QD for 12 days by serial volumetric analysis; format: functional, organism-based
Mus musculus = assay: Inhibition of BCR-ABL phosphorylation in NOD/SCID mouse xenografted with luciferse expressing human K562 cells at 5 to 15 mg/kg, ip QD for 4 days by Western blotting analysis; format: functional, organism-based
[11] = biological target: T1, von Hippel-Lindau disease tumor suppressor/Tyrosine-protein kinase ABL1/Breakpoint cluster region protein; assay: Protac activity against VHL/BCR-ABL in NOD/SCID mouse xenografted with luciferse expressing human K562 cells assessed as induction of BCR-ABL degradation at 15 mg/kg, ip QD for 4 days by Western blotting analysis; format: functional, organism-based
Target sequence in this assay (P00519 whole entry, looked up): as the sequence (P00519 whole entry) above
Target sequence in this assay (P11274 whole entry, looked up): as the sequence (P11274 whole entry) above
Target sequence in this assay (P40337 whole entry, looked up): as the sequence (P40337 whole entry) above

[12] = biological target: Tyrosine-protein kinase ABL1 (Homo sapiens) (UniProt P00519); assay: Binding affinity to human phosphorylated ABL1 (S229 to K512 residues) expressed in mammalian expression system assessed as residual binding level at 10 uM by Kinomescan method relative to control
Chain of Tyrosine-protein kinase ABL1 (Homo sapiens) (P00519 whole entry, the tested form may be a part): as the sequence (P00519 whole entry) above

[13] = biological target: Tyrosine-protein kinase ABL1 (Homo sapiens) (UniProt P00519); assay: Binding affinity to human non-phosphorylated ABL1 (S229 to K512 residues) expressed in mammalian expression system assessed as residual binding level at 10 uM by Kinomescan method relative to control
[14] = Permeability in human Caco2 cells at 10 uM incubated for 120 mins by LC-MS/MS analysis; format: ADME, cell-based; conditions: caco-2, 2 h
[15] = biological target: T1, von Hippel-Lindau disease tumor suppressor/Tyrosine-protein kinase ABL1/Breakpoint cluster region protein; assay: Induction of ternary complex formation between VHL and BCR-ABL (unknown origin) expressed in HEK293 cells expressing N-terminal BCR-ABL LgBit fusion protein and N-terminal SmBit-VHL fusion protein incubated for 1 hr by NanoBit technology based luciferase complementation assay; format: cell-based
Target sequence in this assay (P00519 whole entry, looked up): as the sequence (P00519 whole entry) above
Target sequence in this assay (P11274 whole entry, looked up): as the sequence (P11274 whole entry) above
Target sequence in this assay (P40337 whole entry, looked up): as the sequence (P40337 whole entry) above

SMILES: Cc1nc(Nc2ncc(C(=O)Nc3c(C)cccc3Cl)s2)cc(N2CCN(C(=O)CCCCCC(=O)N[C@H](C(=O)N3C[C@H](O)C[C@H]3C(=O)NCc3ccc(-c4scnc4C)cc3)C(C)(C)C)CC2)n1
IC50 (K562 [1]): 37.6 nM
DC50 [2]: 17.9 nM

SMILES: Cc1nc(Nc2ncc(C(=O)Nc3c(C)cccc3Cl)s2)cc(N2CCN(C(=O)CCC(=O)N[C@H](C(=O)N3C[C@H](O)C[C@H]3C(=O)NCc3ccc(-c4scnc4C)cc3)C(C)(C)C)CC2)n1
IC50 (K562 [1]): 78 nM
DC50 [2]: 611 nM

SMILES: Cc1nc(Nc2ncc(C(=O)Nc3c(C)cccc3Cl)s2)cc(N2CCN(CCCCCCOCCOCCOCCCCCC(=O)N[C@H](C(=O)N3C[C@H](O)C[C@H]3C(=O)NCc3ccc(-c4scnc4C)cc3)C(C)(C)C)CC2)n1
IC50 (K562 [1]): 3.4 nM

SMILES: Cc1nc(Nc2ncc(C(=O)Nc3c(C)cccc3Cl)s2)cc(N2CCN(C(=O)CCCCCOCCOCCOCCCCCC(=O)N[C@H](C(=O)N3C[C@H](O)C[C@H]3C(=O)NCc3ccc(-c4scnc4C)cc3)C(C)(C)C)CC2)n1
IC50 (K562 [1]): 14.9 nM

SMILES: Cc1nc(Nc2ncc(C(=O)Nc3c(C)cccc3Cl)s2)cc(N2CCN(C(=O)CCCCCCCCCCCCC(=O)N[C@H](C(=O)N3C[C@H](O)C[C@H]3C(=O)NCc3ccc(-c4scnc4C)cc3)C(C)(C)C)CC2)n1
IC50 (K562 [1]): 14.4 nM

SMILES: Cc1nc(Nc2ncc(C(=O)Nc3c(C)cccc3Cl)s2)cc(N2CCN(C(=O)CCOCCOCCC(=O)N[C@H](C(=O)N3C[C@H](O)C[C@H]3C(=O)NCc3ccc(-c4scnc4C)cc3)C(C)(C)C)CC2)n1
IC50 (K562 [1]): 670 nM

SMILES: Cc1nc(Nc2ncc(C(=O)Nc3c(C)cccc3Cl)s2)cc(N2CCN(C(=O)CCCc3cn(CCCC(=O)N[C@H](C(=O)N4C[C@H](O)C[C@H]4C(=O)NCc4ccc(-c5scnc5C)cc4)C(C)(C)C)nn3)CC2)n1
IC50 (K562 [1]): 12 nM

SMILES: Cc1nc(Nc2ncc(C(=O)Nc3c(C)cccc3Cl)s2)cc(N2CCN(C(=O)COCCOCC(=O)N[C@H](C(=O)N3C[C@H](O)C[C@H]3C(=O)NCc3ccc(-c4scnc4C)cc3)C(C)(C)C)CC2)n1
IC50 (K562 [1]): 2240 nM

SMILES: Cc1nc(Nc2ncc(C(=O)Nc3c(C)cccc3Cl)s2)cc(N2CCN(C(=O)CCCCCCC(=O)N[C@H](C(=O)N3C[C@@H](O)C[C@H]3C(=O)NCc3ccc(-c4scnc4C)cc3)C(C)(C)C)CC2)n1
inhibition [6]: Active
Activity [7]: inactive
inhibition [8]: Active
Activity [9]: inactive
Activity (K562 [10]): inactive
inhibition (Mus musculus): Active
Activity [11]: inactive
growth inhibition (GI) (K562 [4]): inactive
Activity (K562 [5]): inactive

SMILES: Cc1nc(Nc2ncc(C(=O)Nc3c(C)cccc3Cl)s2)cc(N2CCN(C(=O)CCOCCOCCOCCC(=O)N[C@H](C(=O)N3C[C@H](O)C[C@H]3C(=O)NCc3ccc(-c4scnc4C)cc3)C(C)(C)C)CC2)n1
IC50 (K562 [1]): 3430 nM

Continued, in another order:

IC50 (K562 [1]): 2160 nM
SMILES: Cc1nc(Nc2ncc(C(=O)Nc3c(C)cccc3Cl)s2)cc(N2CCN(C(=O)CCOCCOCCOCCOCCC(=O)N[C@H](C(=O)N3C[C@H](O)C[C@H]3C(=O)NCc3ccc(-c4scnc4C)cc3)C(C)(C)C)CC2)n1

IC50 (K562 [1]): 1610 nM
SMILES: Cc1nc(Nc2ncc(C(=O)Nc3c(C)cccc3Cl)s2)cc(N2CCN(C(=O)CCOCCOCCOCCOCCOCCC(=O)N[C@H](C(=O)N3C[C@H](O)C[C@H]3C(=O)NCc3ccc(-c4scnc4C)cc3)C(C)(C)C)CC2)n1

IC50 (K562 [1]): 0.9 nM
SMILES: Cc1nc(Nc2ncc(C(=O)Nc3c(C)cccc3Cl)s2)cc(N2CCN(CCO)CC2)n1 [DASATINIB]
Activity (K562 [3]): Active
growth inhibition (GI) (K562 [4]): inactive
Activity (K562 [5]): inactive

IC50 (K562 [1]): 87 nM
DC50 [2]: 40.2 nM
SMILES: Cc1nc(Nc2ncc(C(=O)Nc3c(C)cccc3Cl)s2)cc(N2CCN(C(=O)CCCC(=O)N[C@H](C(=O)N3C[C@H](O)C[C@H]3C(=O)NCc3ccc(-c4scnc4C)cc3)C(C)(C)C)CC2)n1

IC50 (K562 [1]): 89 nM
DC50 [2]: 34.7 nM
SMILES: Cc1nc(Nc2ncc(C(=O)Nc3c(C)cccc3Cl)s2)cc(N2CCN(C(=O)CCCCC(=O)N[C@H](C(=O)N3C[C@H](O)C[C@H]3C(=O)NCc3ccc(-c4scnc4C)cc3)C(C)(C)C)CC2)n1

IC50 (K562 [1]): 14.3 nM
DC50 [2]: 10.1 nM
SMILES: Cc1nc(Nc2ncc(C(=O)Nc3c(C)cccc3Cl)s2)cc(N2CCN(C(=O)CCCCCCCCC(=O)N[C@H](C(=O)N3C[C@H](O)C[C@H]3C(=O)NCc3ccc(-c4scnc4C)cc3)C(C)(C)C)CC2)n1

IC50 (K562 [1]): 72 nM
SMILES: Cc1nc(Nc2ncc(C(=O)Nc3c(C)cccc3Cl)s2)cc(N2CCN(C(=O)CCCCNC(=O)CCCCCCCCC(=O)N[C@H](C(=O)N3C[C@H](O)C[C@H]3C(=O)NCc3ccc(-c4scnc4C)cc3)C(C)(C)C)CC2)n1

IC50 (K562 [1]): 22.4 nM
DC50 [2]: 37.9 nM
SMILES: Cc1nc(Nc2ncc(C(=O)Nc3c(C)cccc3Cl)s2)cc(N2CCN(C(=O)CCCCCCCC(=O)N[C@H](C(=O)N3C[C@H](O)C[C@H]3C(=O)NCc3ccc(-c4scnc4C)cc3)C(C)(C)C)CC2)n1

IC50 (K562 [1]): 6.9 nM
SMILES: Cc1nc(Nc2ncc(C(=O)Nc3c(C)cccc3Cl)s2)cc(N2CCN(CCCCCNC(=O)CCCCCCCCC(=O)N[C@H](C(=O)N3C[C@H](O)C[C@H]3C(=O)NCc3ccc(-c4scnc4C)cc3)C(C)(C)C)CC2)n1

IC50 (K562 [1]): 32.3 nM
SMILES: Cc1nc(Nc2ncc(C(=O)Nc3c(C)cccc3Cl)s2)cc(N2CCN(C(=O)CCCCCCCCCCCCCCC(=O)N[C@H](C(=O)N3C[C@H](O)C[C@H]3C(=O)NCc3ccc(-c4scnc4C)cc3)C(C)(C)C)CC2)n1

IC50 (K562 [1]): 68.2 nM
SMILES: Cc1nc(Nc2ncc(C(=O)Nc3c(C)cccc3Cl)s2)cc(N2CCN(C(=O)CNC(=O)CCCC(=O)N[C@H](C(=O)N3C[C@H](O)C[C@H]3C(=O)NCc3ccc(-c4scnc4C)cc3)C(C)(C)C)CC2)n1

Activity [12]: Active
Activity [13]: Active
permeability [14]: Permeable
Activity [15]: Active
SMILES: Cc1nc(Nc2ncc(C(=O)Nc3c(C)cccc3Cl)s2)cc(N2CCN(C(=O)COCCOCCOCC(=O)N[C@H](C(=O)N3C[C@H](O)C[C@H]3C(=O)NCc3ccc(-c4scnc4C)cc3)C(C)(C)C)CC2)n1
